Results reported in patent EP4610269A1, “UROKINASE PLASMINOGEN ACTIVATOR SURFACE RECEPTOR (UPAR) LIGANDS FOR DIAGNOSTIC OR THERAPEUTIC USE” (3B Pharmaceuticals GmbH, priority 2024, dated 2025).
Where two headings read alike, the source gives them in different places. Where a SMILES comes first, the peptide text is derived from it. Bridges are numbered along the chain shown (N, C = ends). [ ]: non-standard residue; d: D form. The star is where a group is joined. DOTA = O=C(O)CN1CCN(CC(=O)O)CCN(CC(=O)*)CCN(CC(=O)O)CC1; Pro(cis-4-F) = O=C(O)[C@@H]1C[C@H](F)CN1; Pro(4R-NH2) = N[C@H]1CN[C@H](C(=O)O)C1; Hyp = O=C(O)[C@@H]1C[C@@H](O)CN1; 4Pal = N[C@@H](Cc1ccncc1)C(=O)O; Pentanoyl(4-Me) = CC(C)CCC(=O)*; Cit = NC(=O)NCCC[C@H](N)C(=O)O; Butoxycarbonyl = CCCCOC(=O)*; NMeS = CN[C@@H](CO)C(=O)O; Nva = CCC[C@H](N)C(=O)O; Hexanoyl = CCCCCC(=O)*; Pentanoyl = CCCCC(=O)*; Aib = CC(C)(N)C(=O)O

Tests used:
[1] = target: T1, uPAR-expressing HEC-265 human endometrial adenocarcinoma cells (Homo sapiens, UniProt Q03405); experiment: Competitive FACS binding assay; conditions: pIC50 category of FACS binding
T1 construct: Cell surface uPAR-expressing HEC-265 human endometrial adenocarcinoma cells; host or cells: HEC-265
How it was run: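 Competitive displacement of a 10 nM biotinylated peptide from HEC-265 cells (1 h, 4 °C, PBS/1% BSA), detected via APC-streptavidin by flow cytometry. pIC50 from four-parameter logistic fit of median fluorescence versus concentration.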

human uPAR (uPAR-Fc) = target: T2, human uPAR (uPAR-Fc) (Homo sapiens, UniProt Q03405); experiment: Surface plasmon resonance (SPR) assay, single cycle kinetics; assay type: binding; conditions: pKD category for uPAR SPR activity assay, uPAR-Fc on Protein A-Chip, 25°C; for Kd: read-out: pKD CAT (converted)
T2 construct: comprising amino acids Leu23-Arg303 according to UniProt entry Q03405.1; purchased R&D Systems 10378-UK-100
How it was run: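 uPAR-Fc (Leu23-Arg303 extracellular domains, human IgG1 Fc) captured on Protein A chip to ~2000 RU; single-cycle kinetics at 25°C in HEPES running buffer pH 7.4 with 0.1% DMSO. KD from double-referenced sensorgrams fitted to 1:1 Langmuir model, reported as pKD.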

T1 sequence (Q03405 23-335): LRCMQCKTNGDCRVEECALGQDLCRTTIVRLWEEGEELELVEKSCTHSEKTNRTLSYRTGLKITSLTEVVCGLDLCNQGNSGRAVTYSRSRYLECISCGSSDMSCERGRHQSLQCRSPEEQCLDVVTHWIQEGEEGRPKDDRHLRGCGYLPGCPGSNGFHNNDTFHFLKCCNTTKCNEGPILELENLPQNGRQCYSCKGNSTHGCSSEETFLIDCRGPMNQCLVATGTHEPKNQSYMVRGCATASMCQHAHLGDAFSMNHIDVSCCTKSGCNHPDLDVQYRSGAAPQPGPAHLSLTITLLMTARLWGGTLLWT
T2 sequence (Q03405 23-303): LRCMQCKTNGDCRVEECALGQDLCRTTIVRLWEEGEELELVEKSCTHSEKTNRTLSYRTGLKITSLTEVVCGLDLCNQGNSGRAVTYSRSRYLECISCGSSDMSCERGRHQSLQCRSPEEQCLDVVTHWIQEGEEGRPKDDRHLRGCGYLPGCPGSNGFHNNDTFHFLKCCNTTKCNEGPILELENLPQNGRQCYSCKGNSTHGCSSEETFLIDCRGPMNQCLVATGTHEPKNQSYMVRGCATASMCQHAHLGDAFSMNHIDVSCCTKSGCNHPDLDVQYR

Row | Compound | IC50 [1] [nM] | Kd (human uPAR (uPAR-Fc); single cycle kinetics) [nM] | Kd (human uPAR (uPAR-Fc)) [nM] | pIC50 CAT [1] | pKD CAT (human uPAR (uPAR-Fc); single cycle kinetics)
1 | CCCCC(=O)N[C@H]1CSSC[C@@H](C(N)=O)NC(=O)[C@H](CCC)NC(=O)[C@H]([C@@H](C)CC)NC(=O)[C@@H]2C[C@@H](N)CN2C(=O)[C@@H]2CCCN2C(=O)[C@H](Cc2ccccc2)NC(=O)[C@H](Cc2ccc(O)cc2)NC(=O)[C@H](CCCCNC(=O)CN2CCN(CC(=O)O)CCN(CC(=O)O)CCN(CC(=O)O)CC2)NC(=O)[C@H](CCCNC(N)=O)NC1=O [UPAR-377, Pent-[Cys-Cit-Lys(DOTA)-Tyr-Phe-Pro-Tap-Ile-Nva-Cys]-NH2] (Pentanoyl-C[Cit]K(DOTA)YFP[Pro(4R-NH2)]I[Nva]C-NH2; disulfide 1-10) | ≤ 10 | < 1.58 | – | – | –
2 | CCCCC(=O)N[C@H]1CSSC[C@@H](C(N)=O)NC(=O)[C@H](CCC)NC(=O)[C@H]([C@@H](C)CC)NC(=O)[C@H](CO)NC(=O)[C@@H]2CCCN2C(=O)[C@H](Cc2ccccc2)NC(=O)[C@H](Cc2ccc(O)cc2)NC(=O)[C@H](CCC(N)=O)NC(=O)[C@H](CCCNC(=N)N)NC1=O [UPAR-154, Pent-[Cys-Arg-Gln-Tyr-Phe-Pro-Ser-Ile-Nva-Cys]-NH2] (Pentanoyl-CRQYFPSI[Nva]C-NH2; disulfide 1-10) | ≤ 10 | – | < 1.58 | – | –
3 | CCCCC(=O)N[C@H]1CSSC[C@@H](C(N)=O)NC(=O)[C@H](Cc2ccccc2)NC(=O)[C@H]([C@@H](C)CC)NC(=O)[C@@H]2C[C@@H](O)CN2C(=O)[C@@H]2CCCN2C(=O)[C@H](Cc2ccccc2)NC(=O)[C@H](Cc2ccc(O)cc2)NC(=O)[C@H](CCC(N)=O)NC(=O)[C@H](CCCNC(=N)N)NC1=O [UPAR-171, Pent-[Cys-Arg-Gln-Tyr-Phe-Pro-Hyp-Ile-Phe-Cys]-NH2] (Pentanoyl-CRQYFP[Hyp]IFC-NH2; disulfide 1-10) | 12.6 to 31.6 | – | 1.58 to 10 | – | –
4 | CCCCC(=O)N[C@H]1CSSC[C@@H](C(N)=O)NC(=O)[C@H](CCC)NC(=O)[C@H]([C@@H](C)CC)NC(=O)[C@@H]2C[C@@H](O)CN2C(=O)[C@@H]2CCCN2C(=O)[C@H](Cc2ccncc2)NC(=O)[C@H](Cc2ccc(O)cc2)NC(=O)[C@H](CCCCNC(=O)CN2CCN(CC(=O)O)CCN(CC(=O)O)CCN(CC(=O)O)CC2)NC(=O)[C@H](CCCNC(N)=O)NC1=O [UPAR-222, Pent-[Cys-Cit-Lys(DOTA)-Tyr-Ppa-Pro-Hyp-Ile-Nva-Cys]-NH2] (Pentanoyl-C[Cit]K(DOTA)Y[4Pal]P[Hyp]I[Nva]C-NH2; disulfide 1-10) | ≤ 10 | – | 1.58 to 10 | – | –
5 | Butoc-[Cys-Cit-Lys(LuDOTA)-Tyr-Pcf-4Cfp-Hyp-Ile-Nva-Cys]-NH2 [UPAR-369] | – | – | – | A (pIC50 values ≥8.0) | A (pKD values ≥ 8.8)
6 | CCCCC(=O)N[C@H]1CSSC[C@@H](C(N)=O)NC(=O)[C@H](CCC)NC(=O)[C@H]([C@@H](C)CC)NC(=O)[C@@H]2C[C@@H](O)CN2C(=O)[C@@H]2CCCN2C(=O)[C@H](Cc2ccccc2)NC(=O)[C@H](Cc2ccc(O)cc2)NC(=O)CNC(=O)[C@H](CCCNC(=N)N)NC1=O [UPAR-409, Pent-[Cys-Arg-Gly-Tyr-Phe-Pro-Hyp-Ile-Nva-Cys]-NH2] (Pentanoyl-CRGYFP[Hyp]I[Nva]C-NH2; disulfide 1-10) | ≤ 10 | < 1.58 | – | – | –
7 | CC[C@H](C)[C@@H]1NC(=O)[C@@H](C)NC(=O)[C@@H]2C[C@@H](O)CN2C(=O)[C@H](Cc2ccccc2)NC(=O)[C@H](Cc2ccc(O)cc2)NC(=O)[C@H](CCC(N)=O)NC(=O)[C@H](CCCNC(N)=O)NC(=O)[C@@H](NC(=O)CCC(C)C)CSSC[C@@H](C(N)=O)NC(=O)[C@H](CC(C)C)NC1=O [UPAR-439, iHex-[Cys-Cit-Gln-Tyr-Phe-Hyp-ala-Ile-Leu-Cys]-NH2] ({Pentanoyl(4-Me)}-C[Cit]QYF[Hyp][dA]ILC-NH2; disulfide 1-10) | ≤ 10 | 1.58 to 10 | – | – | –
8 | CCCCCC(=O)N[C@@H](CC(=O)O)C(=O)N[C@@H](CC(C)C)C(=O)N[C@H]1CSSC[C@@H](C(N)=O)NC(=O)[C@H](CC(C)C)NC(=O)[C@H]([C@@H](C)CC)NC(=O)[C@H](C)NC(=O)[C@@H]2CCCN2C(=O)[C@H](Cc2ccccc2)NC(=O)[C@H](Cc2ccc(O)cc2)NC(=O)[C@H](CCSC)NC(=O)[C@H](CCCNC(=N)N)NC1=O [UPAR-363, Hex-Asp-Leu-[Cys-Arg-Met-Tyr-Phe-Pro-Ala-Ile-Leu-Cys]-NH2] (Hexanoyl-DLCRMYFPAILC-NH2; disulfide 3-12) | ≤ 10 | < 1.58 | – | – | –
9 | CC[C@H](C)[C@@H]1NC(=O)[C@@H](CCCCNC(=O)CN2CCN(CC(=O)O)CCN(CC(=O)O)CCN(CC(=O)O)CC2)NC(=O)[C@@H]2CCCN2C(=O)[C@H](Cc2ccccc2)NC(=O)[C@H](Cc2ccc(O)cc2)NC(=O)[C@H](CCC(N)=O)NC(=O)[C@H](CCCNC(=N)N)NC(=O)[C@@H](NC(=O)CCC(C)C)CSSC[C@@H](C(N)=O)NC(=O)[C@H](CC(C)C)NC1=O [UPAR-367, iHex-[Cys-Arg-Gln-Tyr-Phe-Pro-lys(DOTA)-Ile-Leu-Cys]-NH2] ({Pentanoyl(4-Me)}-CRQYFP[dK](DOTA)ILC-NH2; disulfide 1-10) | ≤ 10 | 10 to 100 | – | – | –
10 | CCCCC(=O)N[C@H]1CSSC[C@@H](C(N)=O)NC(=O)[C@H](CCC)NC(=O)[C@H]([C@@H](C)CC)NC(=O)[C@@H]2C[C@@H](O)CN2C(=O)[C@H](CC(C)C)NC(=O)[C@H](Cc2ccccc2)NC(=O)[C@H](Cc2ccc(O)cc2)NC(=O)[C@H](CCC(N)=O)NC(=O)[C@H](CCCNC(=N)N)NC1=O [UPAR-433, Pent-[Cys-Arg-Gln-Tyr-Phe-Leu-Hyp-Ile-Nva-Cys]-NH2] (Pentanoyl-CRQYFL[Hyp]I[Nva]C-NH2; disulfide 1-10) | ≤ 10 | < 1.58 | – | – | –
11 | CC[C@H](C)[C@@H]1NC(=O)[C@@H](C)NC(=O)[C@@H]2CCCN2C(=O)[C@H](Cc2ccccc2)NC(=O)[C@H](Cc2ccc(O)cc2)NC(=O)C(C)(C)NC(=O)[C@H](CCCNC(N)=O)NC(=O)[C@@H](NC(=O)CCC(C)C)CSSC[C@@H](C(N)=O)NC(=O)[C@H](CC(C)C)NC1=O [UPAR-269, iHex-[Cys-Cit-Aib-Tyr-Phe-Pro-ala-Ile-Leu-Cys]-NH2] ({Pentanoyl(4-Me)}-C[Cit][Aib]YFP[dA]ILC-NH2; disulfide 1-10) | 12.6 to 31.6 | – | 1.58 to 10 | – | –
12 | CCCCOC(=O)N[C@H]1CSSC[C@@H](C(N)=O)NC(=O)[C@H](CCC)NC(=O)[C@H]([C@@H](C)CC)NC(=O)[C@@H]2C[C@@H](O)CN2C(=O)[C@@H]2C[C@H](F)CN2C(=O)[C@H](Cc2ccccc2)NC(=O)[C@H](Cc2ccc(O)cc2)NC(=O)[C@H](CCC(N)=O)NC(=O)[C@H]([C@@H](C)O)NC1=O [UPAR-358, Butoc-[Cys-Thr-Gln-Tyr-Phe-4Cfp-Hyp-Ile-Nva-Cys]-NH2] (Butoxycarbonyl-CTQYF[Pro(cis-4-F)][Hyp]I[Nva]C-NH2; disulfide 1-10) | ≤ 10 | < 1.58 | – | – | –
13 | CCCCC(=O)N[C@H]1CSSC[C@@H](C(N)=O)NC(=O)[C@H](CCC)NC(=O)[C@H]([C@@H](C)CC)NC(=O)[C@H](CO)N(C)C(=O)[C@@H]2CCCN2C(=O)[C@H](Cc2ccccc2)NC(=O)[C@H](Cc2ccc(O)cc2)NC(=O)[C@H](CCCCNC(=O)CN2CCN(CC(=O)O)CCN(CC(=O)O)CCN(CC(=O)O)CC2)NC(=O)[C@H](CCCNC(N)=O)NC1=O [UPAR-277, Pent-[Cys-Cit-Lys(DOTA)-Tyr-Phe-Pro-Nms-Ile-Nva-Cys]-NH2] (Pentanoyl-C[Cit]K(DOTA)YFP[NMeS]I[Nva]C-NH2; disulfide 1-10) | 39.8 to 100 | – | 10 to 100 | – | –
